Source: patent US20160106802A1, “METHODS OF DIAGNOSING AND TREATING ASTHMA” (Alba Therapeutics Corporation, priority 2006, published 2016)
Entries after “also recorded” stand apart in the source; their conditions may differ. Ends that are not written are not given here.

Test system: zonulin receptor
Assay: In situ immunofluorescence microscopy of lung tissue sections with FITC-labeled peptides
Format: binding
Conditions: mouse lung sections (4 μm, frozen blocks) incubated with FITC-labeled peptide; FIG. 1
Method: In situ immunofluorescence microscopy was used to establish the distribution of the zonulin receptor within the respiratory tract. Lung tissue sections (4 μm) made from frozen blocks were placed immediately on plain uncoated slides and incubated with either FITC-labeled FZI/0 (the zonulin synthetic peptide inhibitor that specifically binds to the zonulin receptor described in U.S. Pat. No. 6,458,925, Gly-Gly-Val-Leu-Val-Gln-Pro-Gly SEQ ID NO: 15) or FITC-labeled FZI/1 (a scrambled peptide described in U.S. Pat. No. 6,458,925, Val-Gly-Val-Leu-Gly-Arg-Pro-Gly SEQ ID NO: 25) The results are shown in FIG. 1.

| Sequence | immunofluorescence signal of FITC-labeled peptide bound to lung tissue sections |
| --- | --- |
| GGVLVQPG [FZI/0] | Clusters of immunofluorescent FZI/0 particles were visualized; also recorded: Cluster of immunofluorescence FZI/0 particles were visualized |
| VGVLGRPG [FZI/1, a scrambled peptide described in U.S. Pat. No. 6,458,925, reference compound] | no signal was detected |
